Measured values reported in patent publication US11780834B2, “Solid forms of 3-((1R,3R)-1-(2,6-difluoro-4-((1-(3-fluoropropyl)azetidin-3-yl)amino)phenyl)-3-methyl-1,3,4,9-tetrahydro-2H-pyrido[3,4-b]indol-2-yl)-2,2-difluoropropan-1-ol and processes for preparing fused tricyclic compounds comprising a substituted phenyl or pyridinyl moiety, including methods …” (Hoffmann-La Roche Inc., priority 2018, dated 2023).
Several values for one entry are separate records, joined by “and”; a condition that tells them apart may be missing. Equal values may be shown once. Where a name gives a salt, the structure may show the parent alone. Read-outs that look alike come from different tables or passages of the source.

How the values were obtained:
CYP = experiment: In vitro CYP inhibition (human liver microsomes) and induction (human hepatocytes) studies; assay type: in vitro ADME; settings: induction in human hepatocytes
[1] = test system: xenograft models of ER-positive breast cancer
CYP2B6 = target: T1, CYP2B6 (Homo sapiens, UniProt P20813); experiment: CYP2B6 inhibition in human liver microsomes; assay type: in vitro ADME
T1 construct: from tissue; host or cells: human liver microsomes
T1 sequence (P20813 1-491): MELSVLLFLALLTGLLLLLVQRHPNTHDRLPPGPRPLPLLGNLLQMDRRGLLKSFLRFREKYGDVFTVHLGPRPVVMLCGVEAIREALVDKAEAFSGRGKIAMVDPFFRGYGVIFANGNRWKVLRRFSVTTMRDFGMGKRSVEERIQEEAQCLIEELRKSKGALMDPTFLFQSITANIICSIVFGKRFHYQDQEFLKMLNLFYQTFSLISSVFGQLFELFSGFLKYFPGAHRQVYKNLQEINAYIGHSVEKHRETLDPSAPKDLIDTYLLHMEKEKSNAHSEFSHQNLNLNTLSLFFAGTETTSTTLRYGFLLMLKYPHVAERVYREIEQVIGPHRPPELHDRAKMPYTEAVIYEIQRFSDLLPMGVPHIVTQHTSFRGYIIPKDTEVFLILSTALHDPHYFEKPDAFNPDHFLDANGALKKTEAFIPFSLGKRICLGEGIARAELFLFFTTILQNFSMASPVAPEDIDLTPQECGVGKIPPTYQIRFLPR

[2] = Approximate solubility of Compound B Form B material in 20 solvents at RT; assay type: physicochemical
Description: Polymorph Screening of L-Tartrate. The solubility of Compound B Form B material was estimated in 20 solvents at RT. (Table 22). Approximately 2 mg solids were added into a 3-mL glass vial. Solvents in Table 6-7 were then added into the vials stepwise until the solids were dissolved or a total volume of 1 mL was reached. Results of Table 22 were used to guide the solvent selection in polymorph screening. Polymorph screening experiments were performed using different solution crystallization or solid phase transition methods.

[3] = Oral bioavailability in rats and dogs; settings: rat, dog, in vivo
[4] = test system: ER-positive breast cancer cell lines; experiment: Proliferation of ER-positive breast cancer cell lines in vitro; assay type: cell-based; settings: multiple ER-positive breast cancer cell lines, including cells engineered to express clinically relevant ER mutations
[5] = test system: locally advanced or metastatic ER-positive breast cancer; settings: for Response / Response, per cent in parentheses: one line per patient
Description: (§1) Patients were enrolled in a dose-escalation stage with enrollment in an expansion stage to follow. During the single-agent dose escalation, cohorts were evaluated at escalating dose levels to determine the MTD or maximum administered dose (MAD).
Patients were monitored for adverse events during a dose-limiting toxicity (DLT) assessment window, defined as Days −7 to 28 of Cycle 1 (single-agent cohorts). For DLT evaluation, toxicity was graded according to the National Cancer Institute Common Terminology Criteria for Adverse Events, Version 4.0 (NCI CTCAE v4.0).
Patients enrolled in the single-agent Compound B dose-escalation stage, which consists of a screening period, a PK lead-in period, a treatment period, and a safety follow-up period. Continuous once daily dosing was commenced during the treatment period starting on Cycle 1 Day 1. […] The dose will be increased by up to 200% of the preceding dose level for each successive cohort, until a safety finding of concern (i.e., either a DLT, any patient with Grade ≥2 clinically significant toxicity or overall adverse event profile inappropriate for 200% increments) is observed. Once safety findings of concern are observed, dose escalation will not exceed 100% increments.

[6] = Stress stability of solid forms at elevated temperature and humidity (XRPD, impurities); assay type: physicochemical; settings: 40° C./75% RH, one month, tartrate
Description: Preliminary stress stability analysis of Compound B Form B. The XRPD patterns of Compound A salts (fumarate and tartrate) exposed to 40° C./75% RH for one month under open conditions.
XRPD of one-month stability sample.

ER = ER (Homo sapiens, UniProt P03372); experiment: ER degradation and ER pathway suppression; assay type: cell-based; settings: compared to GDC-0927 and GDC-0810
[7] = Four-week GLP repeat-dose oral toxicity study in female rats
[8] = Four-week GLP repeat-dose oral toxicity study in female monkeys
[9] = monkey, in vivo
[10] = female, rat, in vivo, po, 28 days
clinical = settings: human, in vivo, po
Description: as §1
(§2) Continuous once daily dosing was commenced during the treatment period starting on Cycle 1 Day 1.

CYP2C8 = target: T2, CYP2C8 (Homo sapiens, UniProt P10632); experiment: CYP2C8 inhibition in human liver microsomes; assay type: in vitro ADME
T2 construct: from tissue; host or cells: human liver microsomes
T2 sequence (P10632 1-490): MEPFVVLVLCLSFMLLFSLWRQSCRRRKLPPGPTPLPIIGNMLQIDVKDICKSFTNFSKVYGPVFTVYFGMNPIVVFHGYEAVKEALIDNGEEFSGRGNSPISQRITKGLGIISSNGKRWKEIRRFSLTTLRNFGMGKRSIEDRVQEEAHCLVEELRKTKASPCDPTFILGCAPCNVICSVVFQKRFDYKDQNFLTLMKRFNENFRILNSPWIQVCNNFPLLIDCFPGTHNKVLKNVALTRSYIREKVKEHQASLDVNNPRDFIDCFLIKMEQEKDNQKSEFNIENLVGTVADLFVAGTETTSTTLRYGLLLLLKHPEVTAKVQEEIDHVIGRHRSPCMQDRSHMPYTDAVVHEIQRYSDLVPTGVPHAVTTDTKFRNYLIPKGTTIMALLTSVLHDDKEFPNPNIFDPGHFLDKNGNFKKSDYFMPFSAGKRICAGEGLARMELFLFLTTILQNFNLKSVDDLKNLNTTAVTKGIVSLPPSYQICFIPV

[11] = test system: LBD of both wild-type and mutant ER; experiment: Competitive binding to ER ligand-binding domain
[12] = in vivo
Description: as §1, §2

[13] = female, rat, plasma, po, 100 mg/kg
[14] = female, monkey, plasma, po, 60 mg/kg/day

ER, sequence (P03372 whole entry): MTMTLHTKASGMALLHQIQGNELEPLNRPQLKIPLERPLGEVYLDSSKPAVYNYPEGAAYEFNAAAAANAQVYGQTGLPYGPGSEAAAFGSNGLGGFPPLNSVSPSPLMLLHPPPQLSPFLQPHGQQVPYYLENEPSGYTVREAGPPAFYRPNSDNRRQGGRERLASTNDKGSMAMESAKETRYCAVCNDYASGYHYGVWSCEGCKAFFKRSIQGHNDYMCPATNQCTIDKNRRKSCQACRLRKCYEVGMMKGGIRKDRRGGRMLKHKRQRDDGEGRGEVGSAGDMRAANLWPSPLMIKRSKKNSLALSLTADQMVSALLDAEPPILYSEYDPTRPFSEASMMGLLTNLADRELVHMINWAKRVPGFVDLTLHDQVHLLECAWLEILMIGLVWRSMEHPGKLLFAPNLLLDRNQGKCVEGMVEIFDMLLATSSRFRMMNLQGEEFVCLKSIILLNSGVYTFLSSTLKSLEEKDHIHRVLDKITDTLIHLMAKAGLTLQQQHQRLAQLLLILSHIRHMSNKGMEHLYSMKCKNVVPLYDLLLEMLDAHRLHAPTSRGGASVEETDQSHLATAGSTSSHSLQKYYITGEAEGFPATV

For `C[C@@H]1Cc2c([nH]c3ccccc23)[C@@H](c2c(F)cc(NC3CN(CCCF)C3)cc2F)N1CC(F)(F)CO` [Compound B, 3-((1R,3R)-1-(2,6-difluoro-4-((1-(3-fluoropropyl)azetidin-3-yl)amino)phenyl)-3-methyl-1,3,4,9-tetrahydro-2H-pyrido[3,4-b]indol-2-yl)-2,2-difluoropropan-1-ol tartrate], the “Potential for drug-drug interactions” value (CYP) was “low-to-moderate”, the “Tolerability of doses in xenograft models” value ([1]; in vivo) was “well tolerated” and the Anti-tumor activity ([1]; including patient-derived xenograft with ESR1 mutation (ER.Y537S)) was “dose-dependent anti-tumor activity”. For the same compound, the “Fold lower dose giving same in vivo efficacy as GDC-0927” value ([1]; vs GDC-0927) was 100 ×, the Efficacious dose range ([1]; xenograft models) was 0.1 to 10 mg/kg/day and the IC50 (CYP2B6) was 13 µM. For the same compound, the solubility ([2]; organic solvent or mixture, thermodynamic from solid, 1,4-Dioxane) was less than 2200 µg/mL, the solubility ([2]; organic solvent or mixture, thermodynamic from solid, 2-MeTHF) was less than 1900 µg/mL and the solubility ([2]; organic solvent or mixture, thermodynamic from solid, ACN) was less than 2100 µg/mL. It also gave a solubility ([2]; organic solvent or mixture, thermodynamic from solid, Acetone) of 2100 to 7000 µg/mL, a solubility ([2]; organic solvent or mixture, thermodynamic from solid, Anisole) of less than 1900 µg/mL and a solubility ([2]; organic solvent or mixture, thermodynamic from solid, CPME) of less than 2100 µg/mL. It also gave a solubility ([2]; organic solvent or mixture, thermodynamic from solid, DCM) of less than 2000 µg/mL, a solubility ([2]; organic solvent or mixture, thermodynamic from solid, DMSO) greater than 38000 µg/mL and a solubility ([2]; organic solvent or mixture, thermodynamic from solid, EtOAc) of less than 1900 µg/mL. The solubility ([2]; organic solvent or mixture, thermodynamic from solid, EtOH) was less than 1900 µg/mL, the solubility ([2]; organic solvent or mixture, thermodynamic from solid, IPA) was less than 2100 µg/mL and the solubility ([2]; organic solvent or mixture, thermodynamic from solid, IPAc) was less than 1900 µg/mL. For the same compound, the solubility ([2]; organic solvent or mixture, thermodynamic from solid, MEK) was less than 2000 µg/mL, the solubility ([2]; organic solvent or mixture, thermodynamic from solid, MIBK) was less than 1900 µg/mL and the solubility ([2]; organic solvent or mixture, thermodynamic from solid, MTBE) was less than 2100 µg/mL. It also gave a solubility ([2]; organic solvent or mixture, thermodynamic from solid, MeOH) of 6700 to 20000 µg/mL, a solubility ([2]; organic solvent or mixture, thermodynamic from solid, THF) of 2100 to 7000 µg/mL and a solubility ([2]; organic solvent or mixture, thermodynamic from solid, Toluene) of less than 1900 µg/mL. For the same compound, the solubility ([2]; organic solvent or mixture, thermodynamic from solid, n-Heptane) was less than 2000 µg/mL, the solubility ([2]; water, thermodynamic from solid, H2O) was less than 1900 µg/mL and the bioavailability [3] was 41 to 55%. For the same compound, the Inhibition of proliferation [4] was “potently inhibits”, the “Response of individual patient (CT, FES-PET)” value ([5]; 10 mg, after 3 cycles) was “showed response” and the FES-PET response ([5]; all treated patients with FES-PET, qualitative) was “near-complete (NC) or complete responses (CR)”. The Response ([5]; cohort 1 (10 mg), tartrate) was “uPR”, the “Response, per cent in parentheses” value ([5]; cohort 1 (10 mg), tartrate) was −40% and −27% and the Response ([5]; cohort 1-BF (10 mg)) was “cPD”. For the same compound, the “Response, per cent in parentheses” value ([5]; cohort 2 (30 mg)) was −9%, the “DLTs, SAEs, AESIs, clinically significant laboratory abnormalities” value ([5]; in vivo) was “no observed” and the “Solid form (XRPD) after stress stability” value ([6]; open) was “did not change”. The “Impurities after stress stability” value ([6]; listed as tartrate salt) was “lacked the impurities”, the “ER degradation & ER pathway suppression” value (ER) was “superior” and the AUC(0-t) [7, 13] was 143 µg·h/mL. For the same compound, the Cmax [7, 13] was 6560 ng/mL, the “Exposure multiple (AUC) over anticipated human Phase I starting dose at which PLD was observed” value ([7]; rats) was “at least 44 fold” and the Exposure factor ([7]; rats, 10 mg/kg) was 18 fold. For the same compound, the PLD finding ([7]; rats, 10 mg/kg) was “not noted”, the “Increase in systemic exposure with dose” value ([7]; rats, 28-day oral) was “dose proportional” and the MTD at 4 weeks ([8]; female, monkey, in vivo, po) was 60 mg/kg. The AUC(0-t) [8, 14] was 16200 ng·h/mL, the Cmax [8, 14] was 841 ng/mL and the “Exposure multiple (AUC) over anticipated human Phase I starting dose at which PLD was observed” value ([8]; monkeys) was no less than 6 fold. For the same compound, the Exposure factor ([8]; monkeys, 20 mg/kg) was 6 fold, the PLD finding ([8]; monkeys, 20 mg/kg) was “limited to minimal changes in the lung” and the “Increase in systemic exposure with dose” value ([8]; monkeys, 28-day oral) was “dose proportional”. For the same compound, the “Highest non-severely toxic dose” value ([9]; female, po, 28 days) was 60 mg/kg/day, the “Tolerability at high dose” value ([9]; 200 mg/kg) was “not tolerated” and the “Severely toxic dose for 10% of animals (STD10)” value [10] was 100 mg/kg. The half-life (clinical) was roughly 2400 min, the IC50 (CYP2C8) was 21 µM and the “Potency of competitive binding to ER LBD” value [11] was “nanomolar potency”. For the same compound, the “Plasma exposure vs dose” value [12] was “increased proportionally” and the “Steady state exposure vs dose” value [12] was “higher than dose proportional”.
